Entries after “also recorded” stand apart in the source; their conditions may differ.
What was measured:
[1] = target: TRX-NTa3 fusion protein (TRX-G2-NTa3(1-393)), N-terminal domain of mouse V-ATPase subunit a3 fused to thioredoxin (mouse); assay: ELISA saturation curve, plate coated with TRX-NTa3, GST-B2 as analyte; apparent Kd from half-maximal binding
[2] = test system: undifferentiated RAW 264.7 cells; assay: Protein assay on cell cultures (effect on cellular growth); assay type: cell-based, mouse; conditions: for effect on cell growth, metabolic activity, cytotoxicity (in words): at 1.25 μM / at a concentration efficacious in inhibiting acid secretion; for concentration that did not significantly affect cell growth / total protein: undifferentiated RAW 264.7 cells, 0.3 to 40 μM tested, n=3
Experimental: Concentration range of compound tested was from 0.3 to 40 μM, as indicated (n=3, error bars are +/−SD). […] C indicates control, vehicle only added. The test cell line was undifferentiated RAW 264.7 cells.

[3] = test system: undifferentiated RAW 264.7 cells; assay: MTT assay to determine cytotoxicity; assay type: cell-based, mouse
Experimental: The concentration range of compound tested was from 0.3 to 40 μM, as indicated (n=3). Yellow MTT is converted to purple formazan by mitochondrial reductases. Formazan is measured spectrophotometrically to deduce metabolic activity of test cells. Reduced metabolic activity indicates metabolic dysfunction due to cytotoxicity. In this case, significant cytotoxicity is not seen up to 2.5 μM KM91104 concentration. C indicates control, vehicle only added. The test cell line was undifferentiated RAW 264.7 cells.

RAW 264.7 cells [4] = assay: Total solubilized TRAP assay of RANKL-mediated differentiation; assay type: cell-based, mouse; conditions: 3 days of growth with RANKL, 0.3 to 40 μM tested
Experimental: The concentration range of compound tested was from 0.3 to 40 μM, as indicated (see Materials and Methods). C indicates control, vehicle only added. TRAP is a marker for osteoclast differentiation and will convert colorless p-nitrophenylphosphate to yellow nitrophenol under acidic conditions. The yellow color is quantified spectrophotometrically and indicates degree of differentiation after 3 days of growth with RANKL.

RAW 264.7 cells [5] = assay: TRAP staining analysis (qualitative and cell counts) of RANKL-mediated differentiation and fusion; assay type: cell-based, mouse; conditions: for effect on osteoclast formation, differentiation and fusion (in words): at 1.25 μM / at a concentration efficacious in inhibiting acid secretion, where stated
Experimental: The concentration range of compound tested was from 0.6 to 40 μM, as follows (in μM): a, control, vehicle only; b, 0.63; c, 1.25; d, 2.5; e, 5.0; f, 10; g, 20; h, 40. […] The latter observation is consistent with the conclusion of the protein assay of FIG. 7.
Plotted are cell counts for multinucleated cells with greater than 3 nuclei after treatment with compound KM91104. This figure confirms the qualitative conclusion of FIG. 10 that there is a drop off in the number of larger osteoclasts above 1.25 μM concentration.

[6] = test system: mouse bone marrow-derived macrophages (BMM); assay: TRAP staining of osteoclasts RANKL-differentiated from bone marrow-derived macrophages; assay type: cell-based; conditions: 1.25 μM
Experimental: Panels show: a, control, vehicle only; b and c are duplicates with 1.25 μM KM91104.

[7] = test system: RANKL-differentiated RAW 264.7 cells; assay: Hydroxyapatite resorption on Corning Osteo-Assay Surface plates; assay type: cell-based, mouse; conditions: for acid secretion of osteoclasts (in words): murine osteoclasts
Experimental: RAW 264.7 cells (American Type Culture Collection (ATCC), cat. no. TIB-71) were differentiated in the presence of 100 ng/ml RANKL on synthetic mineralized surfaces of Corning Osteo-Assay Surface 96-well plates (Corning Inc. Life Sciences, Lowell, Mass.; cat. no. 3988XX1). Cells were cultured for 5 days in 200 μl α-MEM (Grand Island Biological Co. (GIBCO)/Invitrogen Corp. cat. no. 12571-063) with 10% fetal bovine serum (FBS; (GIBCO/Invitrogen) cat. no. 10437-028, Lot 1233072). Exposure of cells to RANKL and KM91104 was continuous throughout the experiment. The complete medium was changed on the third day. On day 5, cells were removed using 3% sodium hypochlorite solution. Plates were air dried and then imaged using digital brightfield photomicrography (Leica DM IRE2 with OpenLab software, Leica Microsystems, Richmond Hill, Canada). Image analysis was carried out with NIH ImageJ software (National Institutes of Health, Bethesda, Md.). Concentrations of KM91104 (μM) in medium were as follows: a, control, vehicle only; b, 0.63; c, 1.25; d, 2.5; e, 5.0; f, 10; g, 20; h, 40.
The concentration range of KM91104 tested was from 0.3 to 40 μM, as indicated (see Materials and Methods). C indicates control, vehicle only added. […] Error bars indicate +/−SD (n=3).
Bone resorption (FIGS. 13 and 14) was assayed using the following method. RAW 264.7 cells were differentiated on synthetic mineralized surfaces in 96 well Corning Osteo Assay Surface plates with 100 ng/ml RANK ligand. Wells were simultaneously treated with the lead compound. Cells were cultured for 5 days in […] of α-MEM. The complete medium was changed on the third day. On day 5, cells were removed using 50% bleach solution. Plates were dried and imaged using digital brightfield photomicrograpy. Image analysis was carried out using ImageJ.

[8] = target: TRX-NTa3 fusion protein (TRX-G2-NTa3(1-393)), N-terminal domain of mouse V-ATPase subunit a3 fused to thioredoxin (mouse); assay: ELISA, plate coated with TRX-NTa3, GST-NTB2 against GST-B2(GH)
[9] = target: TRX-NTa3 fusion protein (TRX-G2-NTa3(1-393)), N-terminal domain of mouse V-ATPase subunit a3 fused to thioredoxin (mouse); assay: ELISA, plate coated with TRX-NTa3, GST-NTB2 as analyte; apparent Kd
[10] = target: TRX-NTa3 fusion protein (TRX-G2-NTa3(1-393)), N-terminal domain of mouse V-ATPase subunit a3 fused to thioredoxin (mouse); assay: ELISA saturation curve, plate coated with TRX-NTa3, GST-B1 as analyte; apparent Kd from half-maximal binding
[11] = target: TRX-NTa3 fusion protein (TRX-G2-NTa3(1-393)), N-terminal domain of mouse V-ATPase subunit a3 fused to thioredoxin (mouse); assay: ELISA, plate coated with TRX-NTa3, GST-CTB2 as analyte; apparent Kd

## GST-B2(GH) fusion protein (GST-G2-B2(1-511)-G2H6G2), full length mouse V-ATPase subunit B2 fused to glutathione-S-transferase
[1]
  Kd: 2.4 nM

## O=C(N/N=C/c1ccccc1O)c1ccc(O)c(O)c1 [KM91104, 3,4-dihydroxy-N′-(2-hydroxybenzylidene)benzohydrazide]
[2]
  effect on cell growth, metabolic activity, cytotoxicity (in words): does not affect cell growth or cause cytotoxicity
  concentration that did not significantly affect cell growth / total protein: up to 20 μM
[2]; listed as lead compound
  effect on cell growth, metabolic activity, cytotoxicity (in words): no discernable effect on growth or metabolic activity
  concentration that did not significantly affect cell growth / total protein: < 20 µM
[3]; murine RAW264.7 cells
  toxicity (in words): low toxicity
[3]; undifferentiated RAW 264.7 cells, 0.3 to 40 μM tested, n=3
  concentration up to which significant cytotoxicity is not seen (MTT): up to 2.5 μM
RAW 264.7 cells [4]
  concentration up to which differentiation / mature osteoclast formation is not appreciably affected (TRAP): up to 20 μM
RAW 264.7 cells [4]; listed as lead compound
  concentration up to which differentiation / mature osteoclast formation is not appreciably affected (TRAP): < 20 µM
RAW 264.7 cells [5]; RANKL-differentiated RAW 264.7, 0.6 to 40 μM tested
  concentration above which osteoclast size / number of larger osteoclasts (>3 nuclei) is reduced (fusion impaired): above 1.25 μM
RAW 264.7 cells [5]; all concentrations, 0.63 to 40 μM
  TRAP staining of cells: essentially all cells stain for TRAP
RAW 264.7 cells [5]
  effect on osteoclast formation, differentiation and fusion (in words): does not affect osteoclast differentiation or fusion to form large osteoclasts
RAW 264.7 cells [5]; listed as lead compound
  effect on osteoclast formation, differentiation and fusion (in words): limited effect on their ability to differentiate or undergo fusion
RAW 264.7 cells [5]; listed as the compound
  effect on osteoclast formation, differentiation and fusion (in words): little effect on osteoclast formation and differentiation
RAW 264.7 cells [5]; highest concentration (40 μM)
  cell density: reduction of cell density
RAW 264.7 cells [5]; summary of FIGS. 10 and 11
  concentration that does not affect osteoclast fusion: < 5 µM
[6]
  formation / maturation of large BMM-derived osteoclasts: does not significantly affect the formation of large osteoclasts
[6]; listed as lead compound
  formation / maturation of large BMM-derived osteoclasts: does not affect BMM derived osteoclast maturation
[7]; Mus musculus, RAW264.7, 120 h, 5 days, continuous exposure to RANKL and compound, image analysis of resorption areas, n=3, read-out: concentration for approximately half-maximal inhibition of resorption
  IC50: ~1250 nM
[7]; in vitro, synthetic mineralized surface, listed as lead compound
  effect on resorption (in words): inhibited resorption without affecting osteoclast formation; also recorded: prevents bone resorption in vitro
[7]; lowest concentration tested (range 0.3 to 40 μM)
  reduction in resorption: Highly significant reduction in resorption
[7]; listed as lead compound
  acid secretion of osteoclasts (in words): inhibits acid secretion
[7]; listed as the compound
  acid secretion of osteoclasts (in words): significantly reduced acid secretion

## GST-NTB2 fusion protein (GST-G2-B2(1-112)), N-terminal domain of mouse V-ATPase subunit B2 fused to glutathione-S-transferase
[8]
  fold reduction of binding against the full-length B2 subunit: 60 fold
[9]
  Kd: 230 nM

## GST-B1(GH) fusion protein (GST-G2-B1(1-513)-G2H6G2), full length mouse V-ATPase subunit B1 fused to glutathione-S-transferase (from UniProt Q91YH6)
[10]
  Kd: 2.3 nM

## GST-CTB2 fusion protein (GST-G2-B2(148-511)), C-terminal domain of mouse V-ATPase subunit B2 fused to glutathione-S-transferase
[11]
  Kd: 4.1 nM
